The record followed here is patent US9062051B2, “Compounds and pharmaceutical compositions thereof for the treatment of proliferative disorders” (GALAPAGOS NV, priority 2014, dated 2015).

Where only a bound is given, the exact number is not on record here.

One data set has as its target T1, EphA2 (UniProt Ref: P29317) (Homo sapiens, UniProt P29317).
T1 construct: purchased Reaction Biology
Description: EphA2 assay (Reaction Biology HotSpot radioactive kinase assay). As to conditions: ATP 10 μM; read-out: EphA2 potency IC50. Type of data set: biochemical. The gist of the method:
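Radiometric HotSpot assay measuring ^33P incorporation from [^33P]-γ-ATP into poly[Glu:Tyr] (4:1) (0.2 mg/mL) with 10 μM ATP. IC50 from serial 1/3 dilutions starting at 10 or 3 μM.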

The next data set addresses T2, Recombinant EphB2 (Homo sapiens, UniProt P29323).
T2 construct: purchased Carna 08-129
T2 sequence (P29323 19-986 isoform P29323-2 limits assumed): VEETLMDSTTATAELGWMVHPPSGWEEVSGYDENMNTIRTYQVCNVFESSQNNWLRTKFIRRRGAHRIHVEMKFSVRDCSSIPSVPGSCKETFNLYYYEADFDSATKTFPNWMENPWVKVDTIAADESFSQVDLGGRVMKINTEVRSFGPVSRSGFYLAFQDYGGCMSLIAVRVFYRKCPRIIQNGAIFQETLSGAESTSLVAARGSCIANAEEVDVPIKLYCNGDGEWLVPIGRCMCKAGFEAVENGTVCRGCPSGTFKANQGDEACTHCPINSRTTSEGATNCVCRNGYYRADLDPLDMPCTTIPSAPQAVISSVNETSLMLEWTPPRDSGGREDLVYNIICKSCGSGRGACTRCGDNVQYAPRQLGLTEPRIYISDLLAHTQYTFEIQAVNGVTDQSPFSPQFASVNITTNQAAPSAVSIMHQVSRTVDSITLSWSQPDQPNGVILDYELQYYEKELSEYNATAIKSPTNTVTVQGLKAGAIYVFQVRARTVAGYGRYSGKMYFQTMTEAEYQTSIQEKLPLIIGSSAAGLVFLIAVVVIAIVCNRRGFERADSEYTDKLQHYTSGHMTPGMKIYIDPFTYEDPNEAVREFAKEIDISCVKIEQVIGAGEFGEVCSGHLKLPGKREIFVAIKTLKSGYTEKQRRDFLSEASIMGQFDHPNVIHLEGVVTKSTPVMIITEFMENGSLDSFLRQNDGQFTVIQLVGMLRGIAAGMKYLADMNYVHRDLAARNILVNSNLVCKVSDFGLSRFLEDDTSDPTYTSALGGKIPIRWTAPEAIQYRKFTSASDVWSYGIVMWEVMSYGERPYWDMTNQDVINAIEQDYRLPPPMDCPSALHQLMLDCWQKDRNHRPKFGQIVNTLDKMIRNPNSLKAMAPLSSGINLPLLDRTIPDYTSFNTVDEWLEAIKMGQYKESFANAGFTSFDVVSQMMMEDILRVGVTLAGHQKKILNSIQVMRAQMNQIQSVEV
Description: EphB2 assay (33P incorporation into poly GT, filter plate). The data set is classed as biochemical. As to conditions: read-out: EphB2 potency IC50. As to the method: The principle of the assay consists of the measurement of incorporated ^33P into the substrate poly GT when phosphorylated by the enzyme EphB2 using [^33P]-γ-ATP and ATP. Unincorporated ^33P is removed by loading the samples on a filter plate (using a harvester, Perkin Elmer) and 6 subsequent washing steps. ^33P incorporated in polyGT is measured on a Topcount after addition of microscint to the filter plates (Perkin Elmer).
Recombinant EphB2 (Carna Cat#08-129, 0.6 ng per well) was incubated with 0.05 mg/mL Poly(Glu,Tyr)sodium salt (4:1), MW 20 000-50 000 (Sigma catalog number P0275) in kinase reaction buffer (10 mM MOPS pH 7.2, 5 mM DTT, 0.01% Triton-X100, 5 mM MnCl2, 0.5 mM Na3VO4, 5 mM beta-glycerolphosphate), 0.5 μM non-radioactive ATP, 0.25 μCi/25 μl ^33P-gamma-ATP (Perkin Elmer, catalog number NEG602K) final concentrations with or without 5 μL containing test compound or vehicle (DMSO, 1% final concentration), in a total volume of 25 μL, in a polypropylene 96-well plate (Greiner, V-bottom). After 45 min at 30° C., reactions were stopped by adding of 25 μL/well of 150 mM phosphoric acid. The experiment was then conducted as described for EphA7. The ability of a test compound to inhibit the kinase activity was determined using counts per minutes (cpm) measured by the Topcount as:
Cpm (cpd): cpm determined for sample with test compound present
Cpm (control): cpm determined for sample with positive control inhibitor (10 μM staurosporine)
Cpm (vehicle): cpm determined in the presence of vehicle (1% DMSO)
Dose dilution series were prepared for the compounds enabling the testing of dose-response effects in the EphB2 assay and the calculation of the IC50 for each compound. Each compound was routinely tested at concentration of 20 μM followed by a 1/5 serial dilution, 10 points in a final concentration of 1% DMSO. When potency of compound series increased, more dilutions may be prepared and/or the top concentration may be lowered (e.g. 5 μM, 1 μM).

A short description of data set [1]: Pharmacokinetics in rats (exposure, AUC). The data set is classed as in vivo, male Sprague Dawley rats. As to conditions: 5 mg/kg, po; for AUC: male, Sprague Dawley, rat, plasma. Here is the method: This study is performed with 6 naïve male Sprague Dawley rats (180-200 g, 6-8 weeks old). Rats are obtained from Janvier, Le Genest St Isle, France.
A controlled environment is maintained in the room with optimal conditions of approximately 15 air changes per hour, a temperature of 22±2 C, a relative humidity of 30-70% and a 12 hour light/dark cycle
Pelleted diet for rodents (UAR A04C-10) is used and is provided ad libitum. Before p.o. dosing, the animals are deprived of food for at least 12 hours before compound administration and 4 hours after administration. All animals had free access to tap water.
Two days before the dosing day, the implantation of a catheter in the jugular vein is done under gaseous anaesthesia with isoflurane.
Rats are dosed intravenously with test compound via a bolus in the tail vein with a dose level of 1 mg/kg. […]
The i.v. bolus and the oral administration are given a dose volume of 5 mL/kg.
From all animals approximately 200 μL blood samples are collected via the catheter and placed into tubes containing Li-heparin as anticoagulant. Blood samples are collected at the various time points (i.v.: 0.05, 0.25, 0.5, 1, 3, 5, 8 and 24 hours after dosing; p.o.: 0.25, 0.5, 1, 3, 5, 8 and 24 hours after dosing).
Blood is kept on ice. Within 1 hour after sampling, blood is centrifuged at 5,000 rpm for 10 min at 4° C. Immediately after centrifugation, the resulting plasma samples are collected into polypropylene tubes and are kept frozen at −20° C. pending bioanalysis.
Plasma samples are assayed by LC-MS/MS. Plasma proteins are precipitated with an excess of methanol containing the internal standard and the corresponding supernatant is injected on a C18 column. Analytes are eluted out the HPLC system by increasing the percentage of the organic mobile phase. An API4000 mass spectrometer (AB Sciex™) is used for the detection and quantification.
Pharmacokinetic parameters are calculated by non-compartmental analysis using WinNonlin® software (Pharsight, version 5.2).

T1 sequence (P29317 24-976): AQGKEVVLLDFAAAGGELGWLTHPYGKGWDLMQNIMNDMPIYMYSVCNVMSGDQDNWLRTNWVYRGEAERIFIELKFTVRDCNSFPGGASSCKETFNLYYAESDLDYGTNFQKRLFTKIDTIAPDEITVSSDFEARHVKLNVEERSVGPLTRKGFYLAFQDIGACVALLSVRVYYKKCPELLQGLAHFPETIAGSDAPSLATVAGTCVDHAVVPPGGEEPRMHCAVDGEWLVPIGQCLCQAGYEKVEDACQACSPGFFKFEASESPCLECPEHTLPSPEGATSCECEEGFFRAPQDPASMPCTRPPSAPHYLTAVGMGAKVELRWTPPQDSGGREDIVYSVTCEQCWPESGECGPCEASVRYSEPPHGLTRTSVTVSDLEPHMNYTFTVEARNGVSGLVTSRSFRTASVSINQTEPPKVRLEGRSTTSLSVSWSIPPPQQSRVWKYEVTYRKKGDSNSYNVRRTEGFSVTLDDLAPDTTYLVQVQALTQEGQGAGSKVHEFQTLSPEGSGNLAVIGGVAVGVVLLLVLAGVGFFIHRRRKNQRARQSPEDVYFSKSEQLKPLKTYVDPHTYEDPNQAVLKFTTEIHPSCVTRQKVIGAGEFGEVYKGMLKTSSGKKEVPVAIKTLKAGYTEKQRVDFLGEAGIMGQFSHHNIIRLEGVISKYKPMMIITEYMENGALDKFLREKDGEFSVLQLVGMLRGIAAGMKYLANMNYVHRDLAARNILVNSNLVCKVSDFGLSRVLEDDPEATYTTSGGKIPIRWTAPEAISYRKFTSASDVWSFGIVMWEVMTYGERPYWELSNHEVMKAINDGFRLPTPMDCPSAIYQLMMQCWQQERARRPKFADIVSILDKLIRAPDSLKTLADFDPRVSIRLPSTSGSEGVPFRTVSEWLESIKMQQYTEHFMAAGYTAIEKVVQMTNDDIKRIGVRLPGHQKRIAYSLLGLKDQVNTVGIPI

What is called IC50 is the concentration at which inhibition is half-maximal. The term AUC denotes concentration integrated over time. Higher therefore signals more exposure. Turning to `Cc1ccc(NC(=O)c2cccc(C(F)(F)F)c2)cc1-c1ccc2c(C(O)CN3CCOCC3)n[nH]c2n1` (centres unmarked) [Compound 2, N-{3-[3-(1-Hydroxy-2-morpholin-4-yl-ethyl)-1H-pyrazolo[3,4-b]pyridin-6-yl]-4-methyl-phenyl}-3-trifluoromethyl-benzamide], the IC50 on EphA2 was in the range of 50 to 100 nM. In addition, the IC50 at Recombinant EphB2 lay within 25 to 50 nM. Also, in data set [1], the “Exposure AUC” value is 0.659 µg·h/mL and the AUC came to 0.852 µg·h/mL.
Consider `Cc1cccc(C(=O)Nc2ccc(C)c(-c3ccc4c(C(O)CN5CCOCC5)n[nH]c4n3)c2)c1` (centres unmarked) [Compound 3, N-{3-[3-(1-Hydroxy-2-morpholin-4-yl-ethyl)-1H-pyrazolo[3,4-b]pyridin-6-yl]-4-methyl-phenyl}-3-methyl-benzamide], for which the 50% inhibitory concentration (IC50) at Recombinant EphB2 fell in the range of 50 to 100 nM. Moreover, in data set [1], the “Exposure AUC” value was 0.159 µg·h/mL and the area under the curve (AUC) turned out to be 0.214 µg·h/mL.
In the case of `COc1cc(OC)cc(C(=O)Nc2ccc(C)c(-c3ccc4c(C(O)CN5CCOCC5)n[nH]c4n3)c2)c1` (centres unmarked) [Compound 4, N-{3-[3-(1-Hydroxy-2-morpholin-4-yl-ethyl)-1H-pyrazolo[3,4-b]pyridin-6-yl]-4-methyl-phenyl}-3,5-dimethoxy-benzamide], the half-maximal inhibitory concentration (IC50) was greater than 100 nM on EphA2 and 50 to 100 nM at Recombinant EphB2. For the same compound, the AUC in data set [1] (formulated in methylcellulose 5% in water) stood at 0.407 µg·h/mL.
On to `Cc1ccc(C(=O)Nc2cccc(C(F)(F)F)c2)cc1-c1ccc2c(C(O)CN3CCOCC3)n[nH]c2n1` (centres unmarked) [Compound 5, 3-[3-(1-Hydroxy-2-morpholin-4-yl-ethyl)-1H-pyrazolo[3,4-b]pyridin-6-yl]-4-methyl-N-(3-trifluoromethyl-phenyl)-benzamide], for which the figures for the 50% inhibitory concentration (IC50) at EphA2 and at Recombinant EphB2 were 0.01 to 25 nM and greater than 100 nM, respectively.
Regarding `Cc1ccc(NC(=O)c2cccc(N(C)C)c2)cc1-c1ccc2c(C(O)CN3CCOCC3)n[nH]c2n1` (centres unmarked) [Compound 6, 3-Dimethylamino-N-{3-[3-(1-hydroxy-2-morpholin-4-yl-ethyl)-1H-pyrazolo[3,4-b]pyridin-6-yl]-4-methyl-phenyl}-benzamide], the half-maximal inhibitory concentration (IC50) at EphA2 was 50 to 100 nM; at Recombinant EphB2 it was 25 to 50 nM. This compound also yielded an exposure (AUC) in data set [1] of 1.79 µg·h/mL.
For `COc1cc(OC)cc(C(=O)Nc2ccc(C)c(-c3ccc4c(C(C)O)n[nH]c4n3)c2)c1` (centres unmarked) [Compound 9, N-{3-[3-(1-Hydroxy-ethyl)-1H-pyrazolo[3,4-b]pyridin-6-yl]-4-methyl-phenyl}-3,5-dimethoxy-benzamide], in that order: 25 to 50 nM, 25 to 50 nM and 3.27 µg·h/mL.
With `COc1cc(OC)cc(C(=O)Nc2ccc(C)c(-c3ccc4c(C)n[nH]c4n3)c2)c1` [Compound 11, 3,5-Dimethoxy-N-[4-methyl-3-(3-methyl-1H-pyrazolo[3,4-b]pyridin-6-yl)-phenyl]-benzamide], the half-inhibitory concentration (IC50) on EphA2 and on Recombinant EphB2 was 0.01 to 25 nM in each case.
On to `CCc1n[nH]c2nc(-c3cc(NC(=O)c4cc(OC)cc(OC)c4)cnc3C)ccc12` [Compound 13, N-[5-(3-Ethyl-1H-pyrazolo[3,4-b]pyridin-6-yl)-6-methyl-pyridin-3-yl]-3,5-dimethoxy-benzamide], for which the half-inhibitory concentration (IC50) on EphA2 and at Recombinant EphB2 was 50 to 100 nM each time. This compound also registered an area under the curve (AUC) in data set [1] of 1.42 µg·h/mL.
On to `Cc1cc(C)cc(C(=O)Nc2ccc(C)c(-c3ccc4c(CO)n[nH]c4n3)c2)c1` [Compound 16, N-[3-(3-Hydroxymethyl-1H-pyrazolo[3,4-b]pyridin-6-yl)-4-methyl-phenyl]-3,5-dimethyl-benzamide], for which the IC50 on EphA2 and on Recombinant EphB2 was 0.01 to 25 nM throughout.
Regarding `COc1cc(OC)cc(C(=O)Nc2cnc(C)c(-c3ccc4c(C)n[nH]c4n3)c2)c1` [Compound 17, 3,5-Dimethoxy-N-[6-methyl-5-(3-methyl-1H-pyrazolo[3,4-b]pyridin-6-yl)-pyridin-3-yl]-benzamide], the IC50 on EphA2 was 50 to 100 nM; on Recombinant EphB2 it was 25 to 50 nM. In data set [1], this compound gave an area under the curve (AUC) of 1.23 µg·h/mL.
Turning to `CCc1n[nH]c2nc(-c3cc(NC(=O)c4cc(C)cc(OCCN5CCOCC5)c4)ccc3C)ccc12` [Compound 20, N-[3-(3-Ethyl-1H-pyrazolo[3,4-b]pyridin-6-yl)-4-methyl-phenyl]-3-methyl-5-(2-morpholin-4-yl-ethoxy)-benzamide], the concentration for half-maximal inhibition (IC50) on EphA2 and on Recombinant EphB2 was 0.01 to 25 nM in each case.
As for `CCc1n[nH]c2nc(-c3cc(NC(=O)c4cc(C)cc(OCCOC)c4)ccc3C)ccc12` [Compound 21, N-[3-(3-Ethyl-1H-pyrazolo[3,4-b]pyridin-6-yl)-4-methyl-phenyl]-3-(2-methoxy-ethoxy)-5-methyl-benzamide], the 50% inhibitory concentration (IC50) at EphA2 is 25 to 50 nM; on Recombinant EphB2 it was 0.01 to 25 nM.
Regarding `COc1cc(OC)cc(C(=O)Nc2ccc(C)c(-c3ccc4c(C5(O)CC5)n[nH]c4n3)c2)c1` [Compound 29, N-{3-[3-(1-Hydroxy-cyclopropyl)-1H-pyrazolo[3,4-b]pyridin-6-yl]-4-methyl-phenyl}-3,5-dimethoxy-benzamide], the 50% inhibitory concentration (IC50) on EphA2 fell in the range of 50 to 100 nM; at Recombinant EphB2 it was 0.01 to 25 nM. Also, the exposure (AUC) in data set [1] stood at 5.84 µg·h/mL.
Take `CCc1n[nH]c2nc(-c3cc(NC(=O)c4cc(OC)cc(C(F)(F)F)c4)cnc3C)ccc12` [Compound 49, N-[5-(3-Ethyl-1H-pyrazolo[3,4-b]pyridin-6-yl)-6-methyl-pyridin-3-yl]-3-methoxy-5-trifluoromethyl-benzamide]: the 50% inhibitory concentration (IC50) at Recombinant EphB2 was greater than 100 nM.
Regarding `Cc1ccc(NC(=O)c2cccc(C(F)(F)F)c2)cc1-c1cc(C)c2c(N)n[nH]c2n1` [Compound A, N-(3-(3-amino-4-methyl-1H-pyrazolo[3,4-b]pyridin-6-yl)-4-methylphenyl)-3-(trifluoromethyl)benzamide], the concentration for half-maximal inhibition (IC50) at Recombinant EphB2 lay in the range of 0.01 to 25 nM. In data set [1], this compound gave an AUC of 0.273 µg·h/mL.
